Results on 31 compounds are retold here after patent US20230123334A1, “AMINO LIPID COMPOUND, PREPARATION METHOD THEREFOR, AND APPLICATION THEREOF” (SHENZHEN SHENXIN BIOTECHNOLOGY CO., LTD., priority 2020, published 2023).

The first experiment concerns HEK293 cells. The experiment can be described thus: Preliminary screening as mRNA vectors, EGFP mRNA transfection of HEK293 cells. The experiment is classed as cell-based. The conditions noted are these: HEK293 cells, 96-well plates, EGFP mRNA 50 ng per well; percentage of GFP fluorescent cells relative to total number of cells (Hoechst). The gist of the method:
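Each well of HEK293 cells received 50 ng of EGFP mRNA. Efficiency was expressed as percent GFP-expressing cells over Hoechst-defined total cell number.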
In the case of `CCCCCCCCCCCCCNc1nc(NCCCCCCCCCCCCC)nc(NCCN2CCN(C)CC2)n1` [Compound N13N13D5], the “Absolute mRNA transfection efficiency in HEK293 cells” value (from here on “Absolute mRNA transfection efficiency”) came to 1.7%.

With `CCCCCCCCCCCCCNc1nc(NCCCCCCCCCCCCC)nc(NCCCN(C)C)n1` [Compound N13N13D6], the “Absolute mRNA transfection efficiency” value amounted to 0.2%.

For `CCCCCCCCCCCCCNc1nc(NCCCCCCCCCCCCC)nc(NCCN(CC)CC)n1` [Compound N13N13D7], the “Absolute mRNA transfection efficiency” value was determined as 1.1%.

In the case of `CCCCCCCCCCCCCNc1nc(NCCCCCCCCCCCCC)nc(NCCCN2CCOCC2)n1` [Compound N13N13D8], the “Absolute mRNA transfection efficiency” value came to 0.3%.

With `CCCCCCCCCCCCCNc1nc(NCCCCCCCCCCCCC)nc(NCCCN2CCN(C)CC2)n1` [Compound N13N13D9], the “Absolute mRNA transfection efficiency” value was found to be 0.2%.

As for `CCCCCCCCCCCCCNc1nc(NCCCCCCCCCCCCC)nc(NCC2CCN(C)CC2)n1` [Compound N13N13D10], the “Absolute mRNA transfection efficiency” value worked out at 2.9%.

Take `CCCCCCCCCCCCCCCNc1nc(NCCCCCCCCCCCCC)nc(NCCN(C)C)n1` [Compound N13N15D1]: the “Absolute mRNA transfection efficiency” value stood at 1.4%.

With `CCCCCCCCCCCCCCCNc1nc(NCCCCCCCCCCCCC)nc(NCCN2CCOCC2)n1` [Compound N13N15D2], the “Absolute mRNA transfection efficiency” value is given as 1.4%.

For `CCCCCCCCCCCCCCCNc1nc(NCCCCCCCCCCCCC)nc(NCCN2CCCC2)n1` [Compound N13N15D3], the “Absolute mRNA transfection efficiency” value worked out at 4.7%.

For the compound `CCCCCCCCCCCCCCCNc1nc(NCCCCCCCCCCCCC)nc(NCCN2CCCCC2)n1` [Compound N13N15D4], the “Absolute mRNA transfection efficiency” value was found to be 0.0%.

`CCCCCCCCCCCCCCCNc1nc(NCCCCCCCCCCCCC)nc(NCCN2CCN(C)CC2)n1` [Compound N13N15D5]: the “Absolute mRNA transfection efficiency” value is listed as 0.8%.

Consider `CCCCCCCCCCCCCCCNc1nc(NCCCCCCCCCCCCC)nc(NCCCN(C)C)n1` [Compound N13N15D6], for which the “Absolute mRNA transfection efficiency” value is 0.0%.

In the case of `CCCCCCCCCCCCCCCNc1nc(NCCCCCCCCCCCCC)nc(NCCN(CC)CC)n1` [Compound N13N15D7], the “Absolute mRNA transfection efficiency” value worked out at 3.7%.

Consider `CCCCCCCCCCCCCCCNc1nc(NCCCCCCCCCCCCC)nc(NCCCN2CCOCC2)n1` [Compound N13N15D8], for which the “Absolute mRNA transfection efficiency” value is listed as 0.0%.

Take `CCCCCCCCCCCCCCCNc1nc(NCCCCCCCCCCCCC)nc(NCCCN2CCN(C)CC2)n1` [Compound N13N15D9]: the “Absolute mRNA transfection efficiency” value is recorded as 0.5%.

As for `CCCCCCCCCCCCCCCNc1nc(NCCCCCCCCCCCCC)nc(NCC2CCN(C)CC2)n1` [Compound N13N15D10], the “Absolute mRNA transfection efficiency” value amounted to 0.4%.

As to `CCCCCCCCCCCCCCCCNc1nc(NCCCCCCCCCCCCC)nc(NCCN(C)C)n1` [Compound N13N16D1], the “Absolute mRNA transfection efficiency” value turned out to be 1.5%.

For the compound `CCCCCCCCCCCCCCCCNc1nc(NCCCCCCCCCCCCC)nc(NCCN2CCOCC2)n1` [Compound N13N16D2], the “Absolute mRNA transfection efficiency” value is recorded as 1.4%.

As for `CCCCCCCCCCCCCCCCNc1nc(NCCCCCCCCCCCCC)nc(NCCN2CCCC2)n1` [Compound N13N16D3], the “Absolute mRNA transfection efficiency” value is 1.6%.

For the compound `CCCCCCCCCCCCCCCCNc1nc(NCCCCCCCCCCCCC)nc(NCCN2CCCCC2)n1` [Compound N13N16D4], the “Absolute mRNA transfection efficiency” value is reported as 4.0%.

As for `CCCCCCCCCCCCCCCCNc1nc(NCCCCCCCCCCCCC)nc(NCCN2CCN(C)CC2)n1` [Compound N13N16D5], the “Absolute mRNA transfection efficiency” value was 0.4%.

For the compound `CCCCCCCCCCCCCCCCNc1nc(NCCCCCCCCCCCCC)nc(NCCCN(C)C)n1` [Compound N13N16D6], the “Absolute mRNA transfection efficiency” value is 3.8%.

Turning to `CCCCCCCCCCCCCCCCNc1nc(NCCCCCCCCCCCCC)nc(NCCN(CC)CC)n1` [Compound N13N16D7], the “Absolute mRNA transfection efficiency” value was 0.6%.

On to `CCCCCCCCCCCCCCCCNc1nc(NCCCCCCCCCCCCC)nc(NCCCN2CCOCC2)n1` [Compound N13N16D8], for which the “Absolute mRNA transfection efficiency” value is recorded as 3.3%.

On to `CCCCCCCCCCCCCCCCNc1nc(NCCCCCCCCCCCCC)nc(NCCCN2CCN(C)CC2)n1` [Compound N13N16D9], for which the “Absolute mRNA transfection efficiency” value worked out at 1.4%.

With `CCCCCCCCCCCCCCCCNc1nc(NCCCCCCCCCCCCC)nc(NCC2CCN(C)CC2)n1` [Compound N13N16D10], the “Absolute mRNA transfection efficiency” value was determined as 1.1%.

With `CCCCCCCCCCCCCCCCCCNc1nc(NCCCCCCCCCCCCC)nc(NCCN(C)C)n1` [Compound N13N18D1], the “Absolute mRNA transfection efficiency” value stood at 13.8%.

Take `CCCCCCCCCCCCCCCCCCNc1nc(NCCCCCCCCCCCCC)nc(NCCN2CCOCC2)n1` [Compound N13N18D2]: the “Absolute mRNA transfection efficiency” value came to 0.0%.

In the case of `CCCCCCCCCCCCCCCCCCNc1nc(NCCCCCCCCCCCCC)nc(NCCN2CCCC2)n1` [Compound N13N18D3], the “Absolute mRNA transfection efficiency” value was determined as 21.5%.

As for `CCCCCCCCCCCCCCCCCCNc1nc(NCCCCCCCCCCCCC)nc(NCCN2CCCCC2)n1` [Compound N13N18D4], the “Absolute mRNA transfection efficiency” value was 3.1%.

As to `CCCCCCCCCCCCCCCCCCNc1nc(NCCCCCCCCCCCCC)nc(NCCN2CCN(C)CC2)n1` [Compound N13N18D5], the “Absolute mRNA transfection efficiency” value was found to be 0.7%.

Another experiment has as its system HEK293 cells. The experiment can be described thus: Preliminary screening as DNA vectors, GFP transfection of HEK293 cells. The experiment is classed as cell-based. The conditions noted are these: HEK293 cells; lipid/DOPE liposome with 75 ng plasmid DNA (psin-EGFP-IRES-Puro); number of cells expressing GFP divided by total number of nuclei (Hoechst). Put shortly:
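Lipid + DOPE liposomes (NaOAc, pH 5.6) complexed w/ 75 ng psin-EGFP-IRES-Puro, 30 min RT; added to 3-5×10^4 HEK293/well, 37° C. Hoechst 0.2 μg/mL at 20-24 h, imaged after further 20-24 h. Efficiency = GFP+ cells / total nuclei.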
For the compound `CCCCCCCCCCCCCNc1nc(NCCCCCCCCCCCCC)nc(NCCN2CCN(C)CC2)n1` [Compound N13N13D5], the “Absolute DNA transfection efficiency in HEK293 cells” value (from here on “Absolute DNA transfection efficiency”) was determined as 0.9%.

For `CCCCCCCCCCCCCNc1nc(NCCCCCCCCCCCCC)nc(NCCCN(C)C)n1` [Compound N13N13D6], the “Absolute DNA transfection efficiency” value was determined as 2.5%.

For `CCCCCCCCCCCCCNc1nc(NCCCCCCCCCCCCC)nc(NCCN(CC)CC)n1` [Compound N13N13D7], the “Absolute DNA transfection efficiency” value is reported as 0.1%.

As for `CCCCCCCCCCCCCNc1nc(NCCCCCCCCCCCCC)nc(NCCCN2CCOCC2)n1` [Compound N13N13D8], the “Absolute DNA transfection efficiency” value was 1.4%.

With `CCCCCCCCCCCCCNc1nc(NCCCCCCCCCCCCC)nc(NCCCN2CCN(C)CC2)n1` [Compound N13N13D9], the “Absolute DNA transfection efficiency” value is given as 1.1%.

For `CCCCCCCCCCCCCNc1nc(NCCCCCCCCCCCCC)nc(NCC2CCN(C)CC2)n1` [Compound N13N13D10], the “Absolute DNA transfection efficiency” value is on record as 0.3%.

Take `CCCCCCCCCCCCCCCNc1nc(NCCCCCCCCCCCCC)nc(NCCN(C)C)n1` [Compound N13N15D1]: the “Absolute DNA transfection efficiency” value amounted to 1.5%.

On to `CCCCCCCCCCCCCCCNc1nc(NCCCCCCCCCCCCC)nc(NCCN2CCOCC2)n1` [Compound N13N15D2], for which the “Absolute DNA transfection efficiency” value was determined as 0.0%.

Take `CCCCCCCCCCCCCCCNc1nc(NCCCCCCCCCCCCC)nc(NCCN2CCCC2)n1` [Compound N13N15D3]: the “Absolute DNA transfection efficiency” value worked out at 1.4%.

As to `CCCCCCCCCCCCCCCNc1nc(NCCCCCCCCCCCCC)nc(NCCN2CCCCC2)n1` [Compound N13N15D4], the “Absolute DNA transfection efficiency” value came to 0.0%.

For the compound `CCCCCCCCCCCCCCCNc1nc(NCCCCCCCCCCCCC)nc(NCCN2CCN(C)CC2)n1` [Compound N13N15D5], the “Absolute DNA transfection efficiency” value is listed as 0.2%.

As for `CCCCCCCCCCCCCCCNc1nc(NCCCCCCCCCCCCC)nc(NCCCN(C)C)n1` [Compound N13N15D6], the “Absolute DNA transfection efficiency” value stood at 0.3%.

For `CCCCCCCCCCCCCCCNc1nc(NCCCCCCCCCCCCC)nc(NCCN(CC)CC)n1` [Compound N13N15D7], the “Absolute DNA transfection efficiency” value is reported as 0.8%.

On to `CCCCCCCCCCCCCCCNc1nc(NCCCCCCCCCCCCC)nc(NCCCN2CCOCC2)n1` [Compound N13N15D8], for which the “Absolute DNA transfection efficiency” value was 0.0%.

Take `CCCCCCCCCCCCCCCNc1nc(NCCCCCCCCCCCCC)nc(NCCCN2CCN(C)CC2)n1` [Compound N13N15D9]: the “Absolute DNA transfection efficiency” value came to 0.2%.

As to `CCCCCCCCCCCCCCCNc1nc(NCCCCCCCCCCCCC)nc(NCC2CCN(C)CC2)n1` [Compound N13N15D10], the “Absolute DNA transfection efficiency” value was 0.0%.

For the compound `CCCCCCCCCCCCCCCCNc1nc(NCCCCCCCCCCCCC)nc(NCCN(C)C)n1` [Compound N13N16D1], the “Absolute DNA transfection efficiency” value is 0.8%.

Take `CCCCCCCCCCCCCCCCNc1nc(NCCCCCCCCCCCCC)nc(NCCN2CCOCC2)n1` [Compound N13N16D2]: the “Absolute DNA transfection efficiency” value is listed as 0.0%.

With `CCCCCCCCCCCCCCCCNc1nc(NCCCCCCCCCCCCC)nc(NCCN2CCCC2)n1` [Compound N13N16D3], the “Absolute DNA transfection efficiency” value was found to be 0.4%.

On to `CCCCCCCCCCCCCCCCNc1nc(NCCCCCCCCCCCCC)nc(NCCN2CCCCC2)n1` [Compound N13N16D4], for which the “Absolute DNA transfection efficiency” value is listed as 1.0%.

`CCCCCCCCCCCCCCCCNc1nc(NCCCCCCCCCCCCC)nc(NCCN2CCN(C)CC2)n1` [Compound N13N16D5]: the “Absolute DNA transfection efficiency” value was 0.0%.

In the case of `CCCCCCCCCCCCCCCCNc1nc(NCCCCCCCCCCCCC)nc(NCCCN(C)C)n1` [Compound N13N16D6], the “Absolute DNA transfection efficiency” value turned out to be 1.0%.

Regarding `CCCCCCCCCCCCCCCCNc1nc(NCCCCCCCCCCCCC)nc(NCCN(CC)CC)n1` [Compound N13N16D7], the “Absolute DNA transfection efficiency” value is given as 1.5%.

On to `CCCCCCCCCCCCCCCCNc1nc(NCCCCCCCCCCCCC)nc(NCCCN2CCOCC2)n1` [Compound N13N16D8], for which the “Absolute DNA transfection efficiency” value amounted to 0.0%.

In the case of `CCCCCCCCCCCCCCCCNc1nc(NCCCCCCCCCCCCC)nc(NCCCN2CCN(C)CC2)n1` [Compound N13N16D9], the “Absolute DNA transfection efficiency” value is given as 0.0%.

With `CCCCCCCCCCCCCCCCNc1nc(NCCCCCCCCCCCCC)nc(NCC2CCN(C)CC2)n1` [Compound N13N16D10], the “Absolute DNA transfection efficiency” value is reported as 0.0%.

Consider `CCCCCCCCCCCCCCCCCCNc1nc(NCCCCCCCCCCCCC)nc(NCCN(C)C)n1` [Compound N13N18D1], for which the “Absolute DNA transfection efficiency” value is 2.7%.

As to `CCCCCCCCCCCCCCCCCCNc1nc(NCCCCCCCCCCCCC)nc(NCCN2CCOCC2)n1` [Compound N13N18D2], the “Absolute DNA transfection efficiency” value was 0.2%.

On to `CCCCCCCCCCCCCCCCCCNc1nc(NCCCCCCCCCCCCC)nc(NCCN2CCCC2)n1` [Compound N13N18D3], for which the “Absolute DNA transfection efficiency” value turned out to be 0.5%.

Regarding `CCCCCCCCCCCCCCCCCCNc1nc(NCCCCCCCCCCCCC)nc(NCCN2CCCCC2)n1` [Compound N13N18D4], the “Absolute DNA transfection efficiency” value turned out to be 1.8%.

Regarding `CCCCCCCCCCCCCCCCCCNc1nc(NCCCCCCCCCCCCC)nc(NCCN2CCN(C)CC2)n1` [Compound N13N18D5], the “Absolute DNA transfection efficiency” value was 0.2%.
